PMC8998978, “Toward a Treatment of Cancer: Design and In Vitro/In Vivo Evaluation of Uncharged Pyrazoline Derivatives as a Series of Novel SHP2 Inhibitors” (International Journal of Molecular Sciences, 2022)

Columns and labels:
95-D cells = test: Cell viability assay (SRB); assay type: cell-based; conditions: Homo sapiens, 72 h
Source text: (§1) Human colon cancer cell line HCT116, hepatoma cell lines HepG2 and BEL-7402, lung adenocarcinoma cell lines NCI-H1975 and 95-D, pancreatic cancer cell line Panc-1, breast cancer cell line MDA-MB-231, NSCLC cell line NCI-H1299, ovarian cancer cell line SK-OV-3, leukemia cell line K562, glioma cell line U87, colon epithelial cell line NCM460 and umbilical vein endothelial cell line HUVEC were purchased from the Institute of Biochemistry and Cell Biology, Chinese Academy of Sciences (Shanghai, China). HCT116 cell line was cultured in McCoy’s 5A medium (Hyclone, Logan, UT, USA). HepG2, 95-D, Panc-1, MDA-MB-231, BEL-7402, SK-OV-3, U87 and NCM460 cell lines were cultured in DMEM-High glucose medium (Hyclone, Logan, UT, USA). NCI-H1975, NCI-H1299 and HUVEC cell lines were cultured in RPMI 1640 medium (Hyclone, Logan, UT, USA). K562 cell line was cultured in IMDM medium (Hyclone, Logan, UT, USA). All of them were incubated in the medium with 10% fetal bovine serum (PAN, Adenbach, Bavaria, Germany) and 1% penicillin-streptomycin (Gibco-Invitrogen, Grand Island, NY, USA) under a humidified atmosphere of 5% CO2 at 37 °C.
(§2) The inhibition rate of cell viability was detected by 3-(4,5-dimethyl-2-thiazolyl)-2,5-diphenyl-2-H-tetrazolium bromide (MTT, Solarbio, Beijing, China) or Sulforhodamine B (SRB, Sigma-Aldrich, St. Louis, MO, USA) assay. In MTT assay, the suspension cells were inoculated in 96-well plates at the density of 5000 cells per well, and incubated with 4o at indicated concentrations dissolved in DMSO for 72 h. Each well was incubated with MTT solution (5 mg/mL) at 37 °C for 4 h, DMSO was added and incubated overnight at 37 °C. The absorbance at 570 nm was measured in a multimode reader (Berthold Technologies, Germany). In SRB assay, adherent cells were seeded in 96-well plates (5000 cells per well). After 24 h, the cells were treated with 4o for 72 h, and then fixed with precooling 10% TCA solution at 4 °C for 1 h. After washing and drying, SRB staining was added for 15 min, and then washed and dried by 1% acetic acid. Finally, Tris–HCl solution was added, and the absorbance at 515 nm was detected in a multimode reader (Berthold Technologies, Germany).

BEL-7402 cells = test: Cell viability assay (SRB); assay type: cell-based; conditions: Homo sapiens, BEL-7402, 72 h
Source text: as §1, §2

HepG2 cells = test: Cell viability assay (SRB); assay type: cell-based; conditions: Homo sapiens, HepG2, 72 h
Source text: as §1, §2

MDA-MB-231 cells = test: Cell viability assay (SRB); assay type: cell-based; conditions: Homo sapiens, MDA-MB-231, 72 h
Source text: as §1, §2

NCI-H1299 cells = test: Cell viability assay (SRB); assay type: cell-based; conditions: Homo sapiens, NCI-H1299, 72 h
Source text: as §1, §2

NCI-H1975 cells = test: Cell viability assay (SRB); assay type: cell-based; conditions: Homo sapiens, NCI-H1975, 72 h
Source text: as §1, §2

Panc-1 cells = test: Cell viability assay (SRB); assay type: cell-based; conditions: Homo sapiens, Panc-1, 72 h
Source text: as §1, §2

SK-OV-3 cells = test: Cell viability assay (SRB); assay type: cell-based; conditions: Homo sapiens, SK-OV-3, 72 h
Source text: as §1, §2

U87 cells = test: Cell viability assay (SRB); assay type: cell-based; conditions: Homo sapiens, U-87 MG, U87, 72 h
Source text: as §1, §2

K562 cells = test: Cell viability assay (MTT); assay type: cell-based; conditions: Homo sapiens, K562, 72 h
Source text: as §1, with “All of them were incubated in the medium with 10% fetal bovine serum (PAN, Adenbach, Bavaria, Germany) and 1% penicillin-streptomycin (Gibco-Invitrogen, Grand Island, NY, USA) under a humidified atmosphere of 5% CO2 at 37 °C.” left out
(§3) The inhibition rate of cell viability was detected by 3-(4,5-dimethyl-2-thiazolyl)-2,5-diphenyl-2-H-tetrazolium bromide (MTT, Solarbio, Beijing, China) or Sulforhodamine B (SRB, Sigma-Aldrich, St. Louis, MO, USA) assay. […] The absorbance at 570 nm was measured in a multimode reader (Berthold Technologies, Germany). […] Finally, Tris–HCl solution was added, and the absorbance at 515 nm was detected in a multimode reader (Berthold Technologies, Germany).

human cancer cells = test: Cell viability assay, panel of cancer cells; assay type: cell-based; conditions: 11 cancer cell lines, 72 h, read-out: IC50 values against cancer cells (range over the panel)
Source text: as §1, with “All of them were incubated in the medium with 10% fetal bovine serum (PAN, Adenbach, Bavaria, Germany) and 1% penicillin-streptomycin (Gibco-Invitrogen, Grand Island, NY, USA) under a humidified atmosphere of 5% CO2 at 37 °C.” left out
as §3

HCT116 cells [1] = test: Colony formation assay; assay type: cell-based, human; conditions: 4o 0.625, 1.25 and 2.5 μM, 8 days
Experimental: HCT116 cells were seeded in 6-well plates at a density of 500 cells per well. After 24 h, cells were treated with different concentrations of 4o for 8 days. Subsequently, the culture medium was removed and the cells were fixed with methanol for 3 min, and stained with crystal violet (Solarbio, Beijing, China) for 15 min. Finally, colonies were counted and photographed.

HCT116 cells [2] = test: Western blotting of apoptosis-related proteins; assay type: cell-based, human; conditions: HCT116, 4o 2.5, 5 and 10 μM, 24 h, versus DMSO
Experimental: HCT116 cells were harvested, lysed on ice in RIPA buffer (Beyotime Institute of Biotechnology, Shanghai, China) and boiled. Protein concentration was measured by BCA protein assay kit (Beyotime Institute of Biotechnology, Shanghai, China). The protein samples were separated by SDS-PAGE and transferred to the membrane (Pall, New York, NY, USA). Afterwards, the membrane was immunoblotted with the corresponding primary antibody (C-parp (#5625), C-cas9 (#9505), C-cas3 (#9661), Bcl-2 (#4223), Bax (#5023), SHP2 (#3752), P-Erk1/2 (#9101) and Erk1/2 (#9102), 1:1000, Cell Signaling Technology, Danvers, MA, USA; Tubulin (#ET1602-4), 1:5000, HUABIO, Hangzhou, China) and the appropriate HRP-conjugated secondary antibody, and determined with ECL detection reagent (Thermo Scientific, Waltham, MA, USA).

Subacute toxicity assay = assay type: in vivo
Experimental: In acute toxicity assay, 18 female Kunming mice (Jinan Pengyue Experimental Animal Breeding Co., Ltd., Jinan, China), 18–22 g of weight, were used. The mice were randomly divided into three groups (n = 6), and treated with vehicle (0.5% CMC-Na solution) or 4o (300, 2000 mg/kg) by gavage once. The body weight, toxicity effect, general behavior and mortality of mice were monitored within 14 days after 4o treatment. In subacute toxicity assay, 10 male and 10 female Kunming mice (Jinan Pengyue Experimental Animal Breeding Co., Ltd., Jinan, China), 18–22 g of weight, were used. The mice were randomly divided into two groups with 5 males and 5 females, and were orally treated with vehicle (0.5% CMC-Na solution) or 4o (1000 mg/kg) once a day for 28 days. […]. After 28 days of treatment, the mice were anaesthetized with isoflurane and killed by decapitation. The heart, liver, spleen and kidney tissues were collected, and histologically analyzed by H&E staining.

CCOc1ccc(Oc2ccc(C3=NN(C4=NC(=O)CS4)C(c4cc(O)c(O)c(Br)c4Br)C3)cc2)cc1 (stereo not drawn) [Compound 4o, 2-(5-(2,3-dibromo-4,5-dihydroxyphenyl)-3-(4-(4-ethoxyphenoxy)phenyl)-4,5-dihydro-1H-pyrazol-1-yl)thiazol-4(5H)-one]
IC50 (95-D cells): 5.42 ± 0.44 µM
IC50 (BEL-7402 cells): 7.38 ± 0.31 µM
IC50 (HepG2 cells): 3.8 ± 0.22 µM
IC50 (MDA-MB-231 cells): 6.34 ± 0.37 µM
IC50 (NCI-H1299 cells): 7.42 ± 0.43 µM
IC50 (NCI-H1975 cells): 5.29 ± 0.6 µM
IC50 (Panc-1 cells): 6.3 ± 0.5 µM
IC50 (SK-OV-3 cells): 8.44 ± 0.45 µM
IC50 (U87 cells): 10.2 ± 0.39 µM
IC50 (K562 cells): 9.6 ± 0.68 µM
IC50 (human cancer cells): 2.64 to 10.2 µM
Colony formation of HCT116 cells (HCT116 cells [1]): significantly inhibited the colony formation
Bax/Bcl-2 ratio (HCT116 cells [2]): up-regulated
Levels of cleaved parp, cleaved caspase9 and cleaved caspase3 (HCT116 cells [2]): increased
Body Weight (g) Day 0 (Subacute toxicity assay; 1000 mg/kg orally once a day): 19.08 ± 0.95 g
Body Weight (g) Day 7 (Subacute toxicity assay; 1000 mg/kg orally once a day): 27.52 ± 1.77 g
Body Weight (g) Day 14 (Subacute toxicity assay; 1000 mg/kg orally once a day): 33.41 ± 3.49 g
Body Weight (g) Day 21 (Subacute toxicity assay; 1000 mg/kg orally once a day): 35.49 ± 4.52 g
Body Weight (g) Day 28 (Subacute toxicity assay; 1000 mg/kg orally once a day): 36.63 ± 4.84 g
Mortality (Subacute toxicity assay; 1000 mg/kg orally once a day, 28 days): 0/10
H&E staining of heart, liver, spleen and kidney (Subacute toxicity assay; 1000 mg/kg orally, 28 days): no significant change in the cell morphology
